Patent US9006487B2, “Amine-containing lipids and uses thereof” (Massachusetts Institute of Technology, priority 2005, dated 2015)

System: cos-7 cells
Assay: DNA transfection: luciferase expression relative to Lipofectamine 2000
Format: cell-based
Settings: for % of the luciferase activity obtained from the use of Lipofectamine 2000: 300 ng DNA per well; for % of the luciferase activity obtained from the use of Lipofectamine 2000 / Luciferase expression as a percentage of that achieved using Lipofectamine 2000: luciferase assay after 48 hours; for luciferase expression (second part of table, values relative to LIPO2000): 300 ng of DNA per well; for Luciferase expression as a percentage of that achieved using Lipofectamine 2000: 300 ng Luciferase DNA per well
Protocol: 14,000 cos-7 cells (ATCC, Manassas, Va.) were seeded into each well of a solid white or clear 96 well plate (Corning-Costar, Kennebunk, Me.) and allowed to attached overnight in growth medium, composed of: 500 ml phenol red minus DMEM, 50 ml heat inactivated FBS, 5 ml penicillin/streptomycin (Invitrogen, Carlsbad, Calif.).
A small liquot of lipid was tranferred to an Eppendorf tube. Based on the mass of the lipid in the tube, sterile 25 mM sodium acetate buffer was added to each tube to yield a concentration of 60 mg/ml. The resulting mixture was vortexed for approximately 20 minutes until the lipid was fully dissolved. DNA was prepared based on 300 ng DNA per well of a 96-well plate. 291 μg of Lc DNA was dissolved in 9210 μl of 25 mM sodium acetate buffer. Aliquots of 30 μl of DNA solution were added to each well expect for the last column which was reserved for the Lipo2000 standard. For the last column of the plate, 61 μg of DNA was added to 1940 μl Optimem. 150 μl of media/Optimem was added to each well of plates. 50 μl of lipid solution was aliquoted into wells of robot plate. The following amounts were aliquoted to obtain the correct ratios of DNA to lipid:
In quadruplicate, 30 μl of lipid was aliquoted onto DNA in four rows for each ratio. For the Lipo2000 control (2.5 w/w ratio to DNA), 152.5 μg of Lipo sample was aliquoted into 1847.5 μl of Optimem. 30 μl of this solution was aliquoted onto DNA in the Optimem in the last columns of each plate. The plates were incubated for 15-20 minutes, and then 36.5 μl of lipid+DNA complexes was transferred into 150 μl of media/Optimem, then add to cells. The media was aspirated off the cells, and 105 μl of the lipid/DNA/media/Optimem solution was added to the cells. The luciferase assay was performed after 48 hours.
Luminescence was analyzed using bright-glo assay kits (Promega). Briefly, 100 μl of bright-glo solution was added to each well of the microtiter plate containing media and cells. Luminescence was measured using a Mithras Luminometer (Berthold, Oak Ridge, Tenn.). In some cases, a neutral density filter (Chroma, Brattleboro, Vt.) was used to prevent saturation of the luminometer. A standard curve for Luciferase was generated by titration of Luciferase enzyme (Promega) into growth media in white microtiter plates. Luciferase in ng per well are calculated for each of the lipids at 2.5 w/w, 5 w/w, 10 w/w, 15 w/w, 20 w/w, and 25 w/w lipid to DNA based on the standard curve.
The table below summarizes the data as a % of the luciferase activity obtained from the use of Lipofectamine 2000. The table indicates the best lipids for transfection.

| Compound | % of the luciferase activity obtained from the use of Lipofectamine 2000 (2.5 w/w lipid to DNA) [%] | % of the luciferase activity obtained from the use of Lipofectamine 2000 (5 w/w lipid to DNA) [%] | % of the luciferase activity obtained from the use of Lipofectamine 2000 (10 w/w lipid to DNA) [%] | % of the luciferase activity obtained from the use of Lipofectamine 2000 (15 w/w lipid to DNA) [%] | % of the luciferase activity obtained from the use of Lipofectamine 2000 (20 w/w lipid to DNA) [%] | % of the luciferase activity obtained from the use of Lipofectamine 2000 (25 w/w lipid to DNA) [%] | luciferase expression (second part of table, values relative to LIPO2000) (lipid/DNA 2.5 w/w) | luciferase expression (second part of table, values relative to LIPO2000) (lipid/DNA 5 w/w) | luciferase expression (second part of table, values relative to LIPO2000) (lipid/DNA 10 w/w) | luciferase expression (second part of table, values relative to LIPO2000) (lipid/DNA 15 w/w) | luciferase expression (second part of table, values relative to LIPO2000) (lipid/DNA 20 w/w) | luciferase expression (second part of table, values relative to LIPO2000) (lipid/DNA 25 w/w) | Luciferase expression as a percentage of that achieved using Lipofectamine 2000 (lipid/DNA 2.5 w/w) [%] | Luciferase expression as a percentage of that achieved using Lipofectamine 2000 (lipid/DNA 5 w/w) [%] | Luciferase expression as a percentage of that achieved using Lipofectamine 2000 (lipid/DNA 10 w/w) [%] | Luciferase expression as a percentage of that achieved using Lipofectamine 2000 (lipid/DNA 15 w/w) [%] | Luciferase expression as a percentage of that achieved using Lipofectamine 2000 (lipid/DNA 20 w/w) [%] | Luciferase expression as a percentage of that achieved using Lipofectamine 2000 (lipid/DNA 25 w/w) [%] |
| --- | --- | --- | --- | --- | --- | --- | --- | --- | --- | --- | --- | --- | --- | --- | --- | --- | --- | --- |
| CCCCCCCCCCCCCCCOC(=O)CC[N+](C)(CCC[N+](C)(CCO)CCO)CCC(=O)OCCCCCCCCCCCCCCC [QG87] | 89.0 | 94.0 | 42.4 | 64.7 | 62.1 | 44.1 | 89.0 | 94.0 | 42.4 | 64.7 | 62.1 | 44.1 | – | – | – | – | – | – |
| CCCCCCCCCCOC(=O)CCN(CCC(=O)OCCCCCCCCCC)C[C@H](C)O [LB22] | – | – | – | – | – | – | – | – | – | – | – | – | 0.3 | 0.3 | 0.4 | 0.4 | 0.4 | 0.4 |
| CCCCCCCCCCCCCOC(=O)CCN(CCOCCO)CCC(=O)OCCCCCCCCCCCCC [LE31] | – | – | – | – | – | – | – | – | – | – | – | – | 1.0 | 1.0 | 0.9 | 2.5 | 2.9 | 9.5 |
| CCCCCCCCCCCCCCCOC(=O)CCN(CCC(=O)OCCCCCCCCCCCCCCC)CC(C)O (stereo not drawn) [LG21] | – | – | – | – | – | – | – | – | – | – | – | – | 0.1 | 0.1 | 0.1 | 0.2 | 0.2 | 0.4 |
| CCCCCCCCCCCCOC(=O)CCN(CCCN(CC)CC)CCC(=O)OCCCCCCCCCCCC [LD81] | – | – | – | – | – | – | – | – | – | – | – | – | 0.1 | 0.1 | 15.2 | 7.6 | 5.4 | 2.3 |
| CCCCCCCCCCOC(=O)CCN(CCC(=O)OCCCCCCCCCC)CC1CCCO1 (stereo not drawn) [LB15] | – | – | – | – | – | – | – | – | – | – | – | – | 0.1 | 0.1 | 0.1 | 0.1 | 0.1 | 0.1 |
| CCCCCCCCCCCCCCCOC(=O)CCN(CCC(=O)OCCCCCCCCCCCCCCC)CC(O)CO (stereo not drawn) [LG24] | – | – | – | – | – | – | – | – | – | – | – | – | 2.0 | 3.3 | 4.8 | 11.2 | 16.4 | 32.5 |
| CCCCCCCCCCCCNC(=O)CCN(CCC(=O)NCCCCCCCCCCCC)C(C)(CO)CO [ND26] | – | – | – | – | – | – | 13.4 | 2.3 | 0.1 | 0.0 | 0.0 | 0.0 | – | – | – | – | – | – |
| CCCCCCCCCCOC(=O)CCN(CCCCCCO)CCC(=O)OCCCCCCCCCC [LB36] | – | – | – | – | – | – | – | – | – | – | – | – | 0.1 | 0.1 | 0.1 | 0.1 | 0.1 | 0.1 |
| CCCCCCCCCCOC(=O)CCN(CCCOC)CCC(=O)OCCCCCCCCCC [LB1] | – | – | – | – | – | – | – | – | – | – | – | – | 0.1 | 0.1 | 0.1 | 0.1 | 0.1 | 0.2 |
| CCCCCCCCCCOC(=O)CCN(CCOC)CCC(=O)OCCCCCCCCCC [LB10] | – | – | – | – | – | – | – | – | – | – | – | – | 0.1 | 0.1 | 0.1 | 0.1 | 0.1 | 0.1 |
| CCCCCCCCCCCCCCOC(=O)CCN(CCC(=O)OCCCCCCCCCCCCCC)CC(O)CO (stereo not drawn) [LF24] | – | – | – | – | – | – | – | – | – | – | – | – | 0.1 | 0.1 | 0.1 | 0.2 | 0.3 | 0.3 |
| CCCCCCCCCCCCCCOC(=O)CCN(CCC(=O)OCCCCCCCCCCCCCC)C(CO)CO [LF25] | – | – | – | – | – | – | – | – | – | – | – | – | 0.1 | 0.2 | 0.3 | 0.4 | 0.9 | 1.5 |
| CCCCCCCCCCOC(=O)CCN(CCOCC)CCC(=O)OCCCCCCCCCC [LB11] | – | – | – | – | – | – | – | – | – | – | – | – | 0.1 | 0.1 | 0.1 | 0.1 | 0.1 | 0.1 |
| CCCCCCCCCCCCCCCOC(=O)CC[N+](C)(CCCOC)CCC(=O)OCCCCCCCCCCCCCCC.[I-] [QG1] | – | – | – | – | – | – | – | – | – | – | – | – | 0.4 | 0.5 | 0.4 | 0.4 | 0.3 | 0.3 |
| CCCCCCCCCCCCCCCCCCOC(=O)CCN(CCC(=O)OCCCCCCCCCCCCCCCCCC)CCc1ccc(OC)c(OC)c1 [LH17] | – | – | – | – | – | – | – | – | – | – | – | – | 0.0 | 0.0 | 0.0 | 0.0 | 0.0 | 0.0 |
